Measurements: patent US20160235727A1, “NOVEL PYRROLIDINE DERIVED BETA 3 ADRENERGIC RECEPTOR AGONISTS” (Merck Sharp & Dohme Corp., priority 2013, published 2016)

Biological target: T1, human β3-AR (Homo sapiens, UniProt P13945)
T1 construct: expressed in transfected cells; host or cells: CHO (Chinese hamster ovary) cells, stably transfected
Experiment: cAMP functional agonist assay (LANCE TR-FRET) in CHO cells expressing cloned human β3-AR
Format: cell-based
Details: for EC50: CHO cells stably expressing cloned human β3-adrenoceptor, cAMP release, read-out: Human β3-AR Agonism EC50; for Fold drop in potency vs. 2-chloropyridine analog: EC50 of comparative example divided by EC50 of corresponding 2-chloropyridine compound; for Human β3-AR Agonist Activity (%): percent maximum activation relative to isoproterenol
Protocol: The ability of compounds to activate the human β3-AR receptor was measured using a CHO cell line stably expressing the cloned human β1-, β2-, and β3-adrenoceptors (β-AR). […] To quantify the amount of cAMP released following β-AR activation, the LANCE cAMP kit (Perking Elmer), a time-resolved fluorescence resonance energy transfer immunoassay, was used. Compounds were serially diluted in DMSO and an aliquot added to either 384-well or 96-well micro titer plates in assay buffer (5 mM HEPES, 0.1% BSA in Hank's Balanced Salt Solution). […] Following 30 min incubation at room temperature, the cells were lysed by the addition of LANCE detection buffer which contained a europium-labeled cAMP tracer. Fluorescence was measured following one hour incubation at room temperature using a Perking Elmer Envision plate reader, exciting at 340 nm and measuring emission at 615 nm and 665 nm. For each assay, a cAMP standard curve was included and used to convert fluorescence readings directly to cAMP amounts. The values were then normalized to isoproterenol, a known full agonist of β-AR, which was titrated in every assay and the EC50 determined using a custom in-house data analysis package. Along with EC50, the percent maximum activation relative to isoproterenol is reported.
The cAMP production is measured using a homogenous time-resolved fluorescence resonance energy transfer immunoassay (LANCE™, Perkin Elmer) according to the manufacture's instructions. Chinese hamster ovary (CHO) cells, stably transfected with the cloned β-adrenergic receptor (β1, β2 or β3) are harvested after 3 days of subculturing. Harvesting of cells is done with Enzyme-free Dissociation Media (Specialty Media). Cells are then counted and resuspended in assay buffer (Hank's Balanced salt solution supplemented with 5 mM HEPES, […]) containing a phosphodiesterase inhibitor (IBMX, 0.6 mM). The reaction is initiated by mixing 6,000 cells in 6 μL with 6 μL Alexa Fluor labeled cAMP antibody (LANCE™ kit) which is then added to an assay well containing 12 μL of compound (diluted in assay buffer to 2× final concentration). The reaction proceeds for 30 minutes at RT and is terminated by the addition of 24 ul detection buffer (LANCE™ kit). The assay plate is then incubated for 1 h at RT and time-resolved fluorescence measured on a Perkin Elmer Envision reader or equivalent. The unknown cAMP level is determined by comparing fluorescence levels to a cAMP standard curve.
The non-selective, full agonist β-adrenergic ligand isoproterenol is used at all three receptors to determine maximal stimulation. […] Data are analyzed using Microsoft Excel and Graphpad Prism or an internally developed data analysis software package. […]

T1 sequence (P13945 whole entry): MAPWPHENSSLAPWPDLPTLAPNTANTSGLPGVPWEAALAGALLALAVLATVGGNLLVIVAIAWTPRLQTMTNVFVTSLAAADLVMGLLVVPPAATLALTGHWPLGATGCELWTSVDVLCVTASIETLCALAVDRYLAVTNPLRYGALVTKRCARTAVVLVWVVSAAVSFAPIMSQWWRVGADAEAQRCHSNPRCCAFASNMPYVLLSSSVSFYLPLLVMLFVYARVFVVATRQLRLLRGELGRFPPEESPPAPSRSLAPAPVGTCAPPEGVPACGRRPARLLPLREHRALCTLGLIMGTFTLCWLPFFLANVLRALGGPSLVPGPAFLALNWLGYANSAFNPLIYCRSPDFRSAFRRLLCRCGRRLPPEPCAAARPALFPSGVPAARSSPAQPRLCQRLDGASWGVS

Row | SMILES | EC50 [µM] | Fold drop in potency vs. 2-chloropyridine analog [fold] | Human β3-AR Agonist Activity (%)
1 | CN(Cc1ccnnc1)C(=O)c1ccc(C[C@@H]2CC[C@H]([C@H](O)c3ccccc3)N2)cc1 [Example 42-B, 4-(((2S,5R)-5-((R)-hydroxy(phenyl)methyl)pyrrolidin-2-yl)methyl)-N-methyl-N-(pyridazin-4-ylmethyl)benzamide] | 0.055 | 16.1 | 111
2 | CN(C(=O)c1ccc(C[C@@H]2CC[C@H]([C@H](O)c3ccc(Cl)nc3)N2)cc1)C1CCc2ncccc21 (stereo partly drawn) [Example 24-A, 4-(((2S,5R)-5-((R)-(6-chloropyridin-3-yl)(hydroxy)methyl)pyrrolidin-2-yl)methyl)-N-(6,7-dihydro-5H-cyclopenta[b]pyridin-5-yl)-N-methylbenzamide] | 0.042 |  | 98
3 | CN(Cc1cc(C2CC2)[nH]n1)C(=O)c1ccc(C[C@@H]2CC[C@H]([C@H](O)c3ccccc3)N2)cc1 [Example 8-B, N-((5-cyclopropyl-1H-pyrazol-3-yl)methyl)-4-(((2S,5R)-5-((R)-hydroxy(phenyl)methyl)pyrrolidin-2-yl)methyl)-N-methylbenzamide] | 0.039 | 2.0 | 103
4 | CN(Cc1ccc(=O)[nH]c1)C(=O)c1ccc(C[C@@H]2CC[C@H]([C@H](O)c3ccc(Cl)nc3)N2)cc1 [Example 28-A, 4-(((2S,5R)-5-((R)-(6-chloropyridin-3-yl)(hydroxy)methyl)pyrrolidin-2-yl)methyl)-N-methyl-N-((6-oxo-1,6-dihydropyridin-3-yl)methyl)benzamide] | 0.175 |  | 87
5 | CN(Cc1nc2ccccc2c(=O)n1C)C(=O)c1ccc(C[C@@H]2CC[C@H]([C@H](O)c3ccccc3)N2)cc1 [Example 45-B, 4-(((2S,5R)-5-((R)-hydroxy(phenyl)methyl)pyrrolidin-2-yl)methyl)-N-methyl-N-((3-methyl-4-oxo-3,4-dihydroquinazolin-2-yl)methyl)benzamide] | 0.065 | 2.6 | 81
6 | CN(Cc1cccnc1)C(=O)c1ccc(C[C@@H]2CC[C@H]([C@H](O)c3ccc(Cl)cc3)N2)cc1 [Example 21-G, 4-(((2S,5R)-5-((R)-(4-chlorophenyl)(hydroxy)methyl)pyrrolidin-2-yl)methyl)-N-methyl-N-(pyridin-3-ylmethyl)benzamide] | 0.006 | 1.3 | 88
7 | COc1ccc(CN(C)C(=O)c2ccc(C[C@@H]3CC[C@H]([C@H](O)c4ccccc4)N3)cc2)cn1 [Example 29-B, 4-(((2S,5R)-5-((R)-hydroxy(phenyl)methyl)pyrrolidin-2-yl)methyl)-N-((6-methoxypyridin-3-yl)methyl)-N-methylbenzamide] | 0.086 | 5.1 | 99
8 | CN(Cc1cncc(-c2nnn[nH]2)c1)C(=O)c1ccc(C[C@@H]2CC[C@H]([C@H](O)c3ccc(Cl)nc3)N2)cc1 [Example 37-A, N-((5-(1H-tetrazol-5-yl)pyridin-3-yl)methyl)-4-(((2S,5R)-5-((R)-(6-chloropyridin-3-yl)(hydroxy)methyl)pyrrolidin-2-yl)methyl)-N-methylbenzamide] | 0.027 |  | 94

The remaining compounds from weak to strong by EC50, led by results:

Row | EC50 [µM] | Fold drop in potency vs. 2-chloropyridine analog [fold] | Human β3-AR Agonist Activity (%) | SMILES
9 | 0.026 | 4.0 | 116 | CCOc1cc(CN(C)C(=O)c2ccc(C[C@@H]3CC[C@H]([C@H](O)c4ccccc4)N3)cc2)n[nH]1 [Example 11-B, N-((5-ethoxy-1H-pyrazol-3-yl)methyl)-4-(((2S,5R)-5-((R)-hydroxy(phenyl)methyl)pyrrolidin-2-yl)methyl)-N-methylbenzamide]
10 | 0.019 | 1.6 | 100 | CN(Cc1cnccn1)C(=O)c1ccc(C[C@@H]2CC[C@H]([C@H](O)c3ccc(Cl)cc3)N2)cc1 [Example 40-G, 4-(((2S,5R)-5-((R)-(4-chlorophenyl)(hydroxy)methyl)pyrrolidin-2-yl)methyl)-N-methyl-N-(pyrazin-2-ylmethyl)benzamide]
11 | 0.017 |  | 91 | CN(Cc1cncc(C#N)c1)C(=O)c1ccc(C[C@@H]2CC[C@H]([C@H](O)c3ccc(Cl)nc3)N2)cc1 [Example 35-A, 4-(((2S,5R)-5-((R)-(6-chloropyridin-3-yl)(hydroxy)methyl)pyrrolidin-2-yl)methyl)-N-((5-cyanopyridin-3-yl)methyl)-N-methylbenzamide]
12 | 0.014 | 2.3 | 101 | COC(=O)c1cncc(CN(C)C(=O)c2ccc(C[C@@H]3CC[C@H]([C@H](O)c4ccccc4)N3)cc2)c1 [Example 34-B, Methyl 5-((4-(((2S,5R)-5-((R)-hydroxy(phenyl)methyl)pyrrolidin-2-yl)methyl)-N-methylbenzamido)methyl)nicotinate]
13 | 0.005 |  | 111 | CC(C)[C@H](c1nn(C)c(=O)o1)N(C)C(=O)c1ccc(C[C@@H]2CC[C@H]([C@H](O)c3ccc(Cl)nc3)N2)cc1 [Example 19-A, 4-(((2S,5R)-5-((R)-(6-chloropyridin-3-yl)(hydroxy)methyl)pyrrolidin-2-yl)methyl)-N-methyl-N—((R)-2-methyl-1-(4-methyl-5-oxo-4,5-dihydro-1,3,4-oxadiazol-2-yl)propyl) benzamide]
14 | 0.004 | 0.8 | 95 | Cc1cc(CN(C)C(=O)c2ccc(C[C@@H]3CC[C@H]([C@H](O)c4ccc(Cl)cc4)N3)cc2)n[nH]1 [Example 4-G, 4-(((2S,5R)-5-((R)-(4-chlorophenyl)(hydroxy)methyl)pyrrolidin-2-yl)methyl)-N-methyl-N-((5-methyl-1H-pyrazol-3-yl)methyl)benzamide]
15 | 0.003 | 1.5 | 113 | CN(Cc1n[nH]c2c1CCC2)C(=O)c1ccc(C[C@@H]2CC[C@H]([C@H](O)c3ccccc3)N2)cc1 [Example 13-B, 4-(((2S,5R)-5-((R)-hydroxy(phenyl)methyl)pyrrolidin-2-yl)methyl)-N-methyl-N-((1,4,5,6-tetrahydrocyclopenta[c]pyrazol-3-yl)methyl)benzamide]
16 | 0.003 |  | 99 | CN(Cc1ccc(Cl)nc1)C(=O)c1ccc(C[C@@H]2CC[C@H]([C@H](O)c3ccc(Cl)nc3)N2)cc1 [Example 30-A, 4-(((2S,5R)-5-((R)-(6-chloropyridin-3-yl)(hydroxy)methyl)pyrrolidin-2-yl)methyl)-N-((6-chloropyridin-3-yl)methyl)-N-methylbenzamide]
17 | 0.002 |  | 96 | CN(Cc1cc(C(F)(F)F)[nH]n1)C(=O)c1ccc(C[C@@H]2CC[C@H]([C@H](O)c3ccc(Cl)nc3)N2)cc1 [Example 10-A, 4-(((2S,5R)-5-((R)-(6-chloropyridin-3-yl)(hydroxy)methyl)pyrrolidin-2-yl)methyl)-N-methyl-N-((5-(trifluoromethyl)-1H-pyrazol-3-yl)methyl)benzamide]
